The source of these data is patent publication EP1914304A1 (priority 1998, dated 1999).

Molecules are shown by their SMILES.

Assay [1] addresses gmk/TK-trunc fusion protein (murine guanylate kinase fused to wild-type HSV-1 TK without its first nine amino acids; pET23d:gmk/TK-trunc) (UniProt P0DTH5+Q64520). To be noted: Table X; purified from E. coli.
Assay [2] has as its target gmk/TK-fl fusion protein (murine guanylate kinase fused to the entire wild-type HSV-1 TK; pET23d:gmk/TK-fl) (UniProt P0DTH5+Q64520). The following applies: Table X; purified from E. coli.
The subject of assay [3] is ts13 BHK tk- cells transfected with pCMV:132 (HSV-1 TK mutant 132). Nature of the assay: Cell killing by GCV and ACV, Alamar Blue viability (ED50). The class given is cell-based, baby hamster. The following applies: Mesocricetus auratus, 96 h; effective dose for 50% cell killing, after 4 days on nucleoside analog, pooled G418 resistant clones. On the procedure: (§1) Briefly, the cell transfections are performed as follows. Approximately 5 x 10^5 ts13 BHK tk cells (ATCC CRL-1632) are plated on 100mm dishes in DMEM + 10% calf serum. For each transfection 1 µg of pSV2neo and 10µg of a pCMV construct (pCMV, pCMV:TK-wrong (HSVTK in the wrong orientation relative to the promoter), pCMV:HSVTK, pCMV:30, pCMV:75 or pCMV:132 DNA) in 0.25M CaCl2 are mixed with 0.5ml 2 x BBS (see Chen and Okayama) and preincubated at 37°C at 2.5% CO2 for […]. The CaCl2/DNA mix is added dropwise to the plates and mixed in well. After a 24 hour incubation at 37°C in a 2.5% CO2 wet incubator, the cells are rinsed twice with Dulbecco PBS minus Ca/Mg and fed with fresh DMEM + 10% calf serum. Plates are incubated at 37°C with 6% CO2. After 72 hours post-transfection the cells are split 1:3 and plated in DMEM + 10% calf serum containing G418 at 600µg/ml.
(§2) The cells are selected on G418 (600µg/ml) at 37°C for 17 days. […]. Approximately 30-40 clones are selected in this manner for each transfected DNA containing a tk gene in the correct orientation. The pCMV and pCMV:TK-wrong transfections yielded between 130 and 140 clones each. G418 resistant clones are harvested, pooled and plated at a density of 2000 cells/well in 100µl DMEM + 10% calf serum and 200µg/ml G418 + 6% CO2 in 96 well microtiter plates. […]. After three days in the presence of the nucleoside analog, Alamar Blue is added and 6 hours later the plates are scanned using a fluorometer as according to the manufacturer's protocol (Alamar Biosciences, Inc., Sacramento, CA). The plates are incubated a further 24 hours at 37°C and scanned again.
(§3) Determination of the fluorescence level of cells incubated in the presence of Alamar Blue directly relates to cell viability.
Background: Resazurin is reduced to fluorescent resorufin, in cell work by metabolically active cells.

The subject of assay [4] is ts13 BHK tk- cells transfected with pCMV:30 (HSV-1 TK mutant 30). The description is as above. The class given is cell-based, baby hamster. The following applies: Mesocricetus auratus, 96 h; effective dose for 50% cell killing, after 4 days on nucleoside analog, pooled G418 resistant clones. How it is done: as §1, §2, §3
In assay [5] the test system is ts13 BHK tk- cells transfected with pCMV:75 (HSV-1 TK mutant 75). The description is as above. To be noted: Mesocricetus auratus, 96 h; effective dose for 50% cell killing, after 4 days on nucleoside analog, pooled G418 resistant clones. The assay is classed as cell-based, baby hamster. How it is done:
as §1, §2, §3

Assay [6] relates to ts13 BHK tk- cells transfected with pCMV:HSVTK (wild-type HSV-1 TK). The description is as above. The assay is classed as cell-based, baby hamster. To be noted: Mesocricetus auratus, 96 h; effective dose for 50% cell killing, after 4 days on nucleoside analog, pooled G418 resistant clones. How it is done:
as §1, §2, §3

The subject of assay [7] is Rat C6 cells expressing TK mutant 30. Nature of the assay: Rat C6 kill curves with GCV and ACV. The class given is cell-based. To be noted: Table VIII. The text has this:
(§4) The seven mutants were subcloned into the mammalian expression vector, pREP8D7:dualGFP. This vector contains a constitutive metallothionin promoter, which drives the expression of green flourescent protein (GFP), and an RSV LTR promoter, which stimulated expression of the TK mutants. The vector also contains a histidinol resistance gene for selection of transformants. Purified vector DNA of these constructs was used to transfect BHK tk- cells by electroporation. The transfectants were selected by resistance to histidinol and sorted using FACS analysis for GFP expression. Pools of transfectants were then assayed for sensitivity to GCV or ACV over a range of prodrug doses. […] Table VIII illustrates the IC50 values from Rat C6 kill curves with the SR11, SR26, and SR39 mutants.

Assay [8] has as its system Rat C6 cells expressing TK mutant 411. As to the kind of experiment: Rat C6 kill curves with GCV and ACV. The class given is cell-based. The following applies: Table VIII.
From the text: as §4

Assay [9] deals with Rat C6 cells expressing TK mutant 75. Nature of the assay: Rat C6 kill curves with GCV and ACV. To be noted: Table VIII. The assay is classed as cell-based.
From the text: as §4

The subject of assay [10] is Rat C6 cells expressing TK mutant SR11. Nature of the assay: Rat C6 kill curves with GCV and ACV. The class given is cell-based. The following applies: Table VIII.
From the text: as §4

For assay [11], the system named is Rat C6 cells expressing TK mutant SR26. Nature of the assay: Rat C6 kill curves with GCV and ACV. The assay is classed as cell-based. To be noted: Table VIII.
From the text: as §4

Assay [12] concerns Rat C6 cells expressing TK mutant SR39. As to the kind of experiment: Rat C6 kill curves with GCV and ACV. The assay is classed as cell-based. The following applies: Table VIII.
From the text: as §4

Assay [13] deals with Rat C6 cells expressing wild-type TK. Nature of the assay: Rat C6 kill curves with GCV and ACV. The class given is cell-based. The following applies: Table VIII.
From the text: as §4

Assay [14] deals with rat C6 cells expressing gmk/TK-trunc fusion protein. Nature of the assay: Ganciclovir dose response curve, fusion protein against wild-type TK. The assay is classed as cell-based. The following applies: Figure 31; fusion protein being the superior one.
In assay [15] the test system is rat C6 glioblastoma cells transfected with TK mutant 30, subcutaneous tumor. Nature of the assay: Mouse xenograft tumor model with prodrug treatment. The following applies: prodrug twice a day for 5 days from day 5; Figures 32-34. The assay is classed as in vivo, Nude mice. On the procedure: (§5) Rat C6 glioblastoma cells were transfected with the stable expression vector pREP8D7:dualGFP as described above containing various TK mutants. […] Experiments were carried out to establish prodrug dosing levels for tumor ablation and efficacy of therapy. Nude mice (JAX Labs, Bar Harbor, Maine) were injected subcutaneously with 0.5 x10^6 transfected rat C6 cells. After 5 days, prodrugs (ACV and GCV) were administered twice a day for a further 5 days. Prodrug was given at either of two concentrations (shown as mg/kg). During this period and for an additional 6 days, tumor size was monitored by caliper measurement every other day. At the end of the period, mice were sacrificed and the tumors excised and weighed.

For assay [16], the system named is rat C6 glioblastoma cells transfected with TK mutant SR39, subcutaneous tumor. Nature of the assay: Mouse xenograft tumor model with prodrug treatment. The class given is in vivo, Nude mice. The following applies: prodrug twice a day for 5 days from day 5; Figures 32-34. How it is done: as §5
The target in assay [17] is T1, HSV-1 thymidine kinase mutant 75 (LIF-ALL library, codons 159-161 and 168-170 randomized; pET23d:75) (Human herpesvirus 1, UniProt P0DTH5).
T1 sequence (P0DTH5 1-376): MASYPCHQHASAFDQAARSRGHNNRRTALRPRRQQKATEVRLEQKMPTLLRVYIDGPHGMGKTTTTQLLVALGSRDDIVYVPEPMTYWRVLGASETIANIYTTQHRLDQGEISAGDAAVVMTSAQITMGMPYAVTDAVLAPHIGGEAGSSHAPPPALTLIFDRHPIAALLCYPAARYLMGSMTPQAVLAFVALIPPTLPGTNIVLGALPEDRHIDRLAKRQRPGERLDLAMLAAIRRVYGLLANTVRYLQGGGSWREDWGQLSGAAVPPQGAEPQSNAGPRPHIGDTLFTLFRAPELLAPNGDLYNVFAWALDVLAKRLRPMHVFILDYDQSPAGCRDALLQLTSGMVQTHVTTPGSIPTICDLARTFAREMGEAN
The following applies: Table V.
Description: The culture is incubated at 37°C overnight. The following day the 5ml culture is used to inoculate 1L M9ZB + cabenicillin at 20µg/ml and the culture allowed to grow at 37°C to OD600 0.1. At that point IPTG is added to 0.4mM and the culture incubated a further 3 hours. The cells are chilled on ice, pelleted by centrifugation and the pellets washed once in cell wash buffer (50mM Tris, pH 7.5, 5mM EDTA, 10% sucrose) prior to freezing the pellets at -70°C. The next day the cells are resuspended in 12ml Buffer 1 (50mM Tris, pH 7.5, 10% sucrose, 2mM DTT, 5mM EDTA, 1mM PMSF) and the volume split into two 13ml Oakridge ultracentrifuge tubes. 1ml Buffer 1 containing 3mg lysozyme is added to each tube and the tubes left on ice for 1 hr. […] The cleared supernatant is then aliquoted and frozen at -70°C.
The 1ml bed volume column is prepared by passing 10ml Buffer 1 followed by 10ml Absorption Buffer (50mM Tris, pH 7.5, 10% sucrose, 2mM DTT, 25mM MgAc2, 10mM ATP) over the column. Two ml of the cleared lysate is mixed with 2 ml of Absorption Buffer and passed through a 0.2µm filter. This mix is passed over the column 3 times. The column is washed with 5ml Absorption buffer three times and the 5ml fractions collected. […] The column is reactivated by loading on 10ml High Salt Buffer (50mM Tris, pH 7.5, 10% sucrose, 2mM DTT, 0.5M KCl) and 10ml 50mM Tris, pH 7.5. The column is stored in 50mM Tris pH 7.5 + 0.004% sodium azide. The extent of purification is monitored by Coomassie stained SDS:PAGE analysis and the concentration of purified protein determined using the BioRad Reagent (Bradford Reagent).
Km and Vmax values are determined from double reciprocal plots and kcat values are calculated using the equation Vmax = kcat [Eo] where [Eo] is the total enzyme concentration. The BioRad reagent was used to determine the total enzyme concentration of purified thymidine kinase enzymes.

The Km is the substrate concentration at which the rate is half of its maximum. Regarding `Nc1nc2c(ncn2[C@@H]2O[C@H](COP(=O)(O)O)[C@@H](O)[C@H]2O)c(=O)[nH]1` [GMP], the Km in assay [1] amounted to 95 µM; in assay [2] it was 146 µM.

For `Nc1nc2c(ncn2[C@H]2C[C@H](O)[C@@H](COP(=O)(O)O)O2)c(=O)[nH]1` [dGMP], the Michaelis-Menten constant (Km) in [1] came to 218 µM; in assay [2], 359 µM.

One may read the IC50 as the concentration that inhibits the measured activity by half. Low readings indicate greater potency, high ones weaker potency. For the compound `Nc1nc(O)c2ncn(COC(CO)CO)c2n1` [ganciclovir], the concentration for half-maximal inhibition (IC50) in assay [3] was 18 µM; in [4], 4.4 µM; in assay [5] it was 470 nM; in [6], 20 µM; in assay [7], 10 nM; in assay [8], 100 nM. The IC50 is over 1000 nM in assay [9]; 150 nM in [10]; 40 nM in assay [11]; 17 nM in [12]; 5 µM in assay [13]. The “difference in IC50 between fusion protein and wild-type TK” value in assay [14] stood at 100 fold. Besides, the “tumor reduction (tumor diameter, final tumor weight)” value in assay [15] and in [16] was “significant tumor reduction” each time. Besides, the Km in assay [17] (double reciprocal plots) stood at 10 µM. Moreover, the kcat entry in assay [17] (per active site) is “.050 s⁻¹”.
